Experimental data as given in ChEMBL document CHEMBL5214945, “Identification of small-molecule inhibitors of the DNA repair proteins RuvAB from Pseudomonas aeruginosa” (Bioorg Med Chem, 2022).
Active and inactive are the calls of the source. The calls are words filed in the database; no cut-off is given here.

Assays:
Pseudomonas aeruginosa [1] = assay: Inhibition of Pseudomonas aeruginosa RuvA expressed in Escherichia coli BL21(DE3) binding to HJ DNA assessed as reduction in RuvA-HJ DNA complex formation at >10 uM and measured after 15 mins using 5'-FAM labelled Holliday junction DNA as substrate by EMSA analysis
Pseudomonas aeruginosa [2] = assay: Antimicrobial activity against Pseudomonas aeruginosa ATCC27853 assessed as colony formation at 50 uM preincubated for 1 hr followed by UV-light irradiation for 5 mins then culture on LB-agar plate for overnight by colony counting method; type: functional, organism-based
[3] = (§1) Inhibition of Pseudomonas aeruginosa RuvA/RuvB protein complex helicase activity expressed in Escherichia coli BL21(DE3) assessed as inhibition of HJ branch migration preincubated for 15 mins followed by substrate addition and measured after 1 hr using 5'-FAM labelled 5'-CACTGTGATGCACGATGATTGACGACAGTAGTCAGTGCTGCAGTGGTCAGGTGTC-3' HJ-a duplex DNA as substrate in presence of ATP by PAGE analysis
Pseudomonas aeruginosa [4] = assay: Inhibition of Pseudomonas aeruginosa RuvA expressed in Escherichia coli BL21(DE3) binding to HJ DNA assessed as reduction in RuvA-HJ DNA complex formation at 40 uM and measured after 15 mins using 5'-FAM labelled Holliday junction DNA as substrate by EMSA analysis
Pseudomonas aeruginosa [5] = assay: Inhibition of Pseudomonas aeruginosa RuvA expressed in Escherichia coli BL21(DE3) binding to HJ DNA assessed as reduction in RuvA-HJ DNA complex formation at >20 uM and measured after 15 mins using 5'-FAM labelled Holliday junction DNA as substrate by EMSA analysis
[6] = as §1, with “Bacillus subtilis” for “Pseudomonas aeruginosa”
Pseudomonas aeruginosa [7] = assay: Antimicrobial activity against Pseudomonas aeruginosa ATCC27853 assessed as colony formation at 2 uM preincubated for 1 hr followed by UV-light irradiation for 5 mins then culture on LB-agar plate for overnight by colony counting method; type: functional, organism-based
[8] = as §1, with “Thermus thermophilus” for “Pseudomonas aeruginosa”
Pseudomonas aeruginosa [9] = assay: Binding affinity to CM5 chip immobilized Pseudomonas aeruginosa wild type RuvB expressed in Escherichia coli BL21(DE3) assessed as association rate constant (ka) measured for 240 sec by surface plasmon resonance analysis
Pseudomonas aeruginosa [10] = assay: Binding affinity to CM5 chip immobilized Pseudomonas aeruginosa wild type RuvB expressed in Escherichia coli BL21(DE3) assessed as dissociation rate constant (kd) measured for 180 sec by surface plasmon resonance analysis
Pseudomonas aeruginosa [11] = assay: Binding affinity to CM5 chip immobilized Pseudomonas aeruginosa RuvB D114N mutant expressed in Escherichia coli BL21(DE3) assessed as dissociation rate constant (kd) measured for 180 sec by surface plasmon resonance analysis
Pseudomonas aeruginosa [12] = assay: Binding affinity to CM5 chip immobilized Pseudomonas aeruginosa RuvB D114N mutant expressed in Escherichia coli BL21(DE3) assessed as association rate constant (ka) measured for 240 sec by surface plasmon resonance analysis
[13] = Inhibition of HJ-DNA dependent Pseudomonas aeruginosa RuvB ATPase activity expressed in Escherichia coli BL21(DE3) assessed as inhibition of ATP hydrolysis preincubated with compound followed by ATP addition and measured after 1 hr by Kinase-Glo reagent based luminescence analysis
[14] = Binding affinity to CM5 chip immobilized Pseudomonas aeruginosa RuvB D114N mutant expressed in Escherichia coli BL21(DE3) assessed as dissociation constant measured for 180 sec by surface plasmon resonance analysis
[15] = Binding affinity to CM5 chip immobilized Pseudomonas aeruginosa wild type RuvB expressed in Escherichia coli BL21(DE3) assessed as dissociation constant measured for 180 sec by surface plasmon resonance analysis

| inhibition (Pseudomonas aeruginosa [1]) | IC50 [3] [nM] | inhibition (Pseudomonas aeruginosa [4]) | inhibition (Pseudomonas aeruginosa [5]) | SMILES | Activity (Pseudomonas aeruginosa [2]) | IC50 [6] [nM] | Activity (Pseudomonas aeruginosa [7]) | IC50 [8] [nM] | Ka (Pseudomonas aeruginosa [9]) | Kdiss (Pseudomonas aeruginosa [10]) | Kdiss (Pseudomonas aeruginosa [11]) | Ka (Pseudomonas aeruginosa [12]) | IC50 [13] [nM] | Kd [14] [nM] | Kd [15] [nM] |
| --- | --- | --- | --- | --- | --- | --- | --- | --- | --- | --- | --- | --- | --- | --- | --- |
| Active | 377 | Active |  | COC(=O)[C@]12CCC(C)(C)C[C@H]1[C@H]1C(=O)C=C3[C@@]4(C)C=C(C#N)C(=O)C(C)(C)[C@@H]4CC[C@@]3(C)[C@]1(C)CC2 [BARDOXOLONE METHYL] | Active |  |  |  |  |  |  |  |  |  |  |
|  | 4640 | Active | Active | CC1=C(C)C(=O)C(CCCCCCCCCC[P+](c2ccccc2)(c2ccccc2)c2ccccc2)=CC1=O |  | 13500 | Active | 7900 |  |  |  |  |  |  |  |

| SMILES | inhibition (Pseudomonas aeruginosa [1]) | IC50 [3] [nM] | inhibition (Pseudomonas aeruginosa [4]) | inhibition (Pseudomonas aeruginosa [5]) | Activity (Pseudomonas aeruginosa [2]) | IC50 [6] [nM] | Activity (Pseudomonas aeruginosa [7]) | IC50 [8] [nM] | Ka (Pseudomonas aeruginosa [9]) | Kdiss (Pseudomonas aeruginosa [10]) | Kdiss (Pseudomonas aeruginosa [11]) | Ka (Pseudomonas aeruginosa [12]) | IC50 [13] [nM] | Kd [14] [nM] | Kd [15] [nM] |
| --- | --- | --- | --- | --- | --- | --- | --- | --- | --- | --- | --- | --- | --- | --- | --- |
| O=C(O[C@@H]1O[C@@H]2COC(=O)c3cc(O)c(O)c(O)c3-c3c(cc(O)c(O)c3O)C(=O)O[C@H]([C@H]1O)[C@@H]2O)c1cc(O)c(O)c(O)c1 [CORILAGIN] |  | 398 |  |  | Active | 840 |  | 1110 | 1.6 10^4/M/s | 2.2 10^-3/s | 2.4 10^-3/s | 5.9 10^3/M/s | 2320 | 410 | 130 |
